Target: T1, Androgen Receptor (AR) protein (Homo sapiens, UniProt P10275, T878A)
T1 construct: endogenous in cells; host or cells: LNCaP
Test: Androgen Receptor (AR) protein degradation assay in LNCaP cells, western blotting
Format: cell-based
Conditions: 20 h; for inhibition at 0.01 µM: 0.01 μM compound; for inhibition at 0.1 µM: 0.1 μM compound; for inhibition at 1 µM: 1 μM compound; for inhibition at 10 µM: 10 μM compound
In short: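 AR protein level was detected by western blot (ECL) against GAPDH or β-actin controls, with 8 μg lysate protein loaded per lane after BCA quantification. Lysates came from LNCaP cells exposed to test compound for 20 h, following 3 days of growth in RPMI/10% FBS.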

T1 sequence (P10275 whole entry T878A): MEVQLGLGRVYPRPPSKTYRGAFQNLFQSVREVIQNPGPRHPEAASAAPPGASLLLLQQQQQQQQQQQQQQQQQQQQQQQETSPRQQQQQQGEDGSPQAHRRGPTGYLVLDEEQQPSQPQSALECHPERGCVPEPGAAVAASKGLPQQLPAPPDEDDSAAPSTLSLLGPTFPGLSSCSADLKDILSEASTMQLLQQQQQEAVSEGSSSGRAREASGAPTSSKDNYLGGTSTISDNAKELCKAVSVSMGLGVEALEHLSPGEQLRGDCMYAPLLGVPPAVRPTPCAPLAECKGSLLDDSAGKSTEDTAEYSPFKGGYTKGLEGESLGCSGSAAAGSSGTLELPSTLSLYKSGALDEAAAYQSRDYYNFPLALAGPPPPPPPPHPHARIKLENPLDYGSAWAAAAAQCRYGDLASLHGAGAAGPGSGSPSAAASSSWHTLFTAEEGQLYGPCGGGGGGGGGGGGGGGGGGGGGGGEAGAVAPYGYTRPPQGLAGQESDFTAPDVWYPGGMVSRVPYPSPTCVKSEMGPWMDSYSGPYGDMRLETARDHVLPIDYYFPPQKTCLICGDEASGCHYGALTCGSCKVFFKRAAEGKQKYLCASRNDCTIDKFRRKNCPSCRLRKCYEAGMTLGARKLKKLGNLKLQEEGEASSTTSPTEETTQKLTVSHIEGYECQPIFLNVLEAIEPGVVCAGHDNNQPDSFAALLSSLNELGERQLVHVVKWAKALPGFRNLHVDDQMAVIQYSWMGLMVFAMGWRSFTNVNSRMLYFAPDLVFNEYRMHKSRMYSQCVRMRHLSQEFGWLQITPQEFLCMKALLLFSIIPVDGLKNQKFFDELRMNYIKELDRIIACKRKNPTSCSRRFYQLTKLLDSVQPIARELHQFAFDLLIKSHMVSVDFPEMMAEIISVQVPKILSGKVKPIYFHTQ
T1 sequence (Q96SW2 whole entry partner): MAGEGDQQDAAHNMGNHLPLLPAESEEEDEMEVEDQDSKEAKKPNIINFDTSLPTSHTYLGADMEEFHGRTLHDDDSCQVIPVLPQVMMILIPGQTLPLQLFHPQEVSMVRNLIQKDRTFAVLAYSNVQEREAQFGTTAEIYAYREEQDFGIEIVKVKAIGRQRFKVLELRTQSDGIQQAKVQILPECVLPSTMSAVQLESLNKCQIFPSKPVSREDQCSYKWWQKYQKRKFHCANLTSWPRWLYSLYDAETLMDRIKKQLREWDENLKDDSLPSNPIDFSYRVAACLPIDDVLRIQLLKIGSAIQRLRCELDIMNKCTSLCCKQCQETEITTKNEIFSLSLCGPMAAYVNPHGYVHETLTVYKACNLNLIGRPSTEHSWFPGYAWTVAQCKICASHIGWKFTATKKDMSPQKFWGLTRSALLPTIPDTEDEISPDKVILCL

Row | SMILES | inhibition at 0.01 µM [%] | inhibition at 0.1 µM [%] | inhibition at 1 µM [%] | inhibition at 10 µM [%]
1 | C[C@@H]1CN(C2CCN(c3ccc4c(n3)CN(C3CCC(=O)NC3=O)C4=O)CC2)CCN1CC1CCN(c2ccc(NC(=O)C3CCN(c4ccc(C#N)c(C(F)(F)F)c4)CC3)nc2)CC1 (stereo partly drawn) [Example 43, 1-(4-cyano-3-(trifluoromethyl)phenyl)-N-(5-(4-(((2R)-4-(1-(6-(2,6-dioxopiperidin-3-yl)-5-oxo-6,7-dihydro-5H-pyrrolo[3,4-b]pyridin-2-yl)piperidin-4-yl)-2-methylpiperazin-1-yl)methyl)piperidin-1-yl)pyridin-2-yl)piperidine-4-carboxamide] | 68 | 94 | 83 | 
2 | C[C@@H]1CN(CC2CCN(c3ccc4c(n3)CN(C3CCC(=O)NC3=O)C4=O)CC2)CCN1CC1CCN(c2ccc(NC(=O)C3CCN(c4ccc(C#N)c(C(F)(F)F)c4)CC3)nc2)CC1 (stereo partly drawn) [Example 44, 1-(4-cyano-3-(trifluoromethyl)phenyl)-N-(5-(4-(((2R)-4-((1-(6-(2,6-dioxopiperidin-3-yl)-5-oxo-6,7-dihydro-5H-pyrrolo[3,4-b]pyridin-2-yl)piperidin-4-yl)methyl)-2-methylpiperazin-1-yl)methyl)piperidin-1-yl)pyridin-2-yl)piperidine-4-carboxamide] | 80 | 98 | 93 | 
3 | C[C@H]1CN(C2CCN(c3ccc4c(n3)CN(C3CCC(=O)NC3=O)C4=O)CC2)CCN1CC1CCN(c2ccc(NC(=O)C3CCN(c4ccc(C#N)c(C(F)(F)F)c4)CC3)nc2)CC1 (stereo partly drawn) [Example 45, 1-(4-cyano-3-(trifluoromethyl)phenyl)-N-(5-(4-(((2S)-4-(1-(6-(2,6-dioxopiperidin-3-yl)-5-oxo-6,7-dihydro-5H-pyrrolo[3,4-b]pyridin-2-yl)piperidin-4-yl)-2-methylpiperazin-1-yl)methyl)piperidin-1-yl)pyridin-2-yl)piperidine-4-carboxamide] | 66 | 95 | 87 | 
4 | C[C@H]1CN(CC2CCN(c3ccc4c(n3)CN(C3CCC(=O)NC3=O)C4=O)CC2)CCN1CC1CCN(c2ccc(NC(=O)C3CCN(c4ccc(C#N)c(C(F)(F)F)c4)CC3)nc2)CC1 (stereo partly drawn) [Example 46, 1-(4-cyano-3-(trifluoromethyl)phenyl)-N-(5-(4-(((2S)-4-((1-(6-(2,6-dioxopiperidin-3-yl)-5-oxo-6,7-dihydro-5H-pyrrolo[3,4-b]pyridin-2-yl)piperidin-4-yl)methyl)-2-methylpiperazin-1-yl)methyl)piperidin-1-yl)pyridin-2-yl)piperidine-4-carboxamide] | 70 | 97 | 91 | 
5 | C[C@@H]1CN(CC2CCN(c3ccc(NC(=O)C4CCN(c5ccc(C#N)c(C(F)(F)F)c5)CC4)nc3)CC2)CCN1CC1CCN(c2ccc3c(n2)CN(C2CCC(=O)NC2=O)C3=O)CC1 (stereo partly drawn) [Example 47, 1-(4-cyano-3-(trifluoromethyl)phenyl)-N-(5-(4-(((3R)-4-((1-(6-(2,6-dioxopiperidin-3-yl)-5-oxo-6,7-dihydro-5H-pyrrolo[3,4-b]pyridin-2-yl)piperidin-4-yl)methyl)-3-methylpiperazin-1-yl)methyl)piperidin-1-yl)pyridin-2-yl)piperidine-4-carboxamide] | 65 | 95 | 89 | 
6 | C[C@H]1CN(CC2CCN(c3ccc(NC(=O)C4CCN(c5ccc(C#N)c(C(F)(F)F)c5)CC4)nc3)CC2)CCN1CC1CCN(c2ccc3c(n2)CN(C2CCC(=O)NC2=O)C3=O)CC1 (stereo partly drawn) [Example 48, 1-(4-cyano-3-(trifluoromethyl)phenyl)-N-(5-(4-(((3S)-4-((1-(6-(2,6-dioxopiperidin-3-yl)-5-oxo-6,7-dihydro-5H-pyrrolo[3,4-b]pyridin-2-yl)piperidin-4-yl)methyl)-3-methylpiperazin-1-yl)methyl)piperidin-1-yl)pyridin-2-yl)piperidine-4-carboxamide] | 59 | 94 | 87 | 
7 | N#Cc1ccc(N2CCC(C(=O)Nc3ccc(N4CCC(CN5CC6(CCN(c7ccc8c(c7)C(=O)N(C7CCC(=O)NC7=O)C8=O)CC6)C5)CC4)cn3)CC2)cc1Cl (centres unmarked) [Example 50, 1-(3-chloro-4-cyanophenyl)-N-(5-(4-((7-(2-(2,6-dioxopiperidin-3-yl)-1,3-dioxoisoindolin-5-yl)-2,7-diazaspiro[3.5]nonan-2-yl)methyl)piperidin-1-yl)pyridin-2-yl)piperidine-4-carboxamide] | 61 | 97 | 99 | 98
8 | CC1(C(=O)Nc2ccc(N3CCC(CN4CC5(CCN(c6ccc7c(c6)C(=O)N(C6CCC(=O)NC6=O)C7=O)CC5)C4)CC3)cn2)CCN(c2ccc(C#N)c(C(F)(F)F)c2)CC1 (centres unmarked) [Example 51, 1-(4-cyano-3-(trifluoromethyl)phenyl)-N-(5-(4-((7-(2-(2,6-dioxopiperidin-3-yl)-1,3-dioxoisoindolin-5-yl)-2,7-diazaspiro[3.5]nonan-2-yl)methyl)piperidin-1-yl)pyridin-2-yl)-4-methylpiperidine-4-carboxamide] | 33 | 85 | 94 | 
9 | N#Cc1ccc(N2CCC(C(=O)Nc3ccc(N4CCC(CN5CC6(CCN(c7ccc8c(=O)n(C9CCC(=O)NC9=O)nnc8c7)CC6)C5)CC4)cn3)CC2)cc1C(F)(F)F (centres unmarked) [Example 52, 1-(4-cyano-3-(trifluoromethyl)phenyl)-N-(5-(4-((7-(3-(2,6-dioxopiperidin-3-yl)-4-oxo-3,4-dihydrobenzo[d][1,2,3]triazin-7-yl)-2,7-diazaspiro[3.5]nonan-2-yl)methyl)piperidin-1-yl)pyridin-2-yl)piperidine-4-carboxamide] | 50 | 91 | 97 | 
10 | N#Cc1ccc(N2CCC(C(=O)Nc3ccc(N4CCC(CN5CC6(CCN(c7ccc8nnn(C9CCC(=O)NC9=O)c(=O)c8c7)CC6)C5)CC4)cn3)CC2)cc1C(F)(F)F (centres unmarked) [Example 53, 1-(4-cyano-3-(trifluoromethyl)phenyl)-N-(5-(4-((7-(3-(2,6-dioxopiperidin-3-yl)-4-oxo-3,4-dihydrobenzo[d][1,2,3]triazin-6-yl)-2,7-diazaspiro[3.5]nonan-2-yl)methyl)piperidin-1-yl)pyridin-2-yl)piperidine-4-carboxamide] | 27 | 89 | 93 | 
11 | N#Cc1ccc(N2CCC(F)(C(=O)Nc3ccc(N4CCC(CN5CC6(CCN(c7ccc8c(c7)C(=O)N(C7CCC(=O)NC7=O)C8=O)CC6)C5)CC4)cn3)CC2)cc1C(F)(F)F (centres unmarked) [Example 54, 1-(4-cyano-3-(trifluoromethyl)phenyl)-N-(5-(4-((7-(2-(2,6-dioxopiperidin-3-yl)-1,3-dioxoisoindolin-5-yl)-2,7-diazaspiro[3.5]nonan-2-yl)methyl)piperidin-1-yl)pyridin-2-yl)-4-fluoropiperidine-4-carboxamide] | 60 | 95 | 98 | 
12 | N#Cc1ccc(N2CCC(O)(C(=O)Nc3ccc(N4CCC(CN5CC6(CCN(c7ccc8c(c7)C(=O)N(C7CCC(=O)NC7=O)C8=O)CC6)C5)CC4)cn3)CC2)cc1C(F)(F)F (centres unmarked) [Example 55, 1-(4-cyano-3-(trifluoromethyl)phenyl)-N-(5-(4-((7-(2-(2,6-dioxopiperidin-3-yl)-1,3-dioxoisoindolin-5-yl)-2,7-diazaspiro[3.5]nonan-2-yl)methyl)piperidin-1-yl)pyridin-2-yl)-4-hydroxypiperidine-4-carboxamide] | 34 | 69 | 95 | 
13 | N#Cc1ccc(N2CCC(CC(=O)Nc3ccc(N4CCC(CN5CC6(CCN(c7ccc8c(c7)C(=O)N(C7CCC(=O)NC7=O)C8=O)CC6)C5)CC4)cn3)C2)cc1C(F)(F)F (centres unmarked) [Example 56, 2-(1-(4-cyano-3-(trifluoromethyl)phenyl)pyrrolidin-3-yl)-N-(5-(4-((7-(2-(2,6-dioxopiperidin-3-yl)-1,3-dioxoisoindolin-5-yl)-2,7-diazaspiro[3.5]nonan-2-yl)methyl)piperidin-1-yl)pyridin-2-yl)acetamide] | -8 | 87 | 95 | 
14 | N#Cc1ncc(N2CCC(C(=O)Nc3ccc(N4CCC(CN5CC6(CCN(c7ccc8c(c7)C(=O)N(C7CCC(=O)NC7=O)C8=O)CC6)C5)CC4)cn3)CC2)cc1C(F)(F)F (centres unmarked) [Example 57, 1-(6-cyano-5-(trifluoromethyl)pyridin-3-yl)-N-(5-(4-((7-(2-(2,6-dioxopiperidin-3-yl)-1,3-dioxoisoindolin-5-yl)-2,7-diazaspiro[3.5]nonan-2-yl)methyl)piperidin-1-yl)pyridin-2-yl)piperidine-4-carboxamide] | 43 | 85 | 96 | 
15 | N#Cc1ncc(N2CCC(F)(C(=O)Nc3ccc(N4CCC(CN5CC6(CCN(c7ccc8c(c7)C(=O)N(C7CCC(=O)NC7=O)C8=O)CC6)C5)CC4)cn3)CC2)cc1C(F)(F)F (centres unmarked) [Example 58, 1-(6-cyano-5-(trifluoromethyl)pyridin-3-yl)-N-(5-(4-((7-(2-(2,6-dioxopiperidin-3-yl)-1,3-dioxoisoindolin-5-yl)-2,7-diazaspiro[3.5]nonan-2-yl)methyl)piperidin-1-yl)pyridin-2-yl)-4-fluoropiperidine-4-carboxamide] | 16 | 41 | 77 | 
16 | N#Cc1ccc(N2CCC(C(=O)Nc3ccc(N4CCC(CN5CC6(CCN(c7ccc8c(c7)C(=O)N(C7CCC(=O)NC7=O)C8=O)CC6)C5)CC4)nc3)CC2)cc1C(F)(F)F (centres unmarked) [Example 59, 1-(4-cyano-3-(trifluoromethyl)phenyl)-N-(6-(4-((7-(2-(2,6-dioxopiperidin-3-yl)-1,3-dioxoisoindolin-5-yl)-2,7-diazaspiro[3.5]nonan-2-yl)methyl)piperidin-1-yl)pyridin-3-yl)piperidine-4-carboxamide] | 9 | 32 | 47 | 68

— US12122763B2, “Substituted piperidines for androgen receptor degradation” (UBIX THERAPEUTICS, INC., priority 2020, dated 2024)
